Assay results from US9481648B2, “Kinase inhibitors” (Respivert Limited, priority 2013, dated 2016).

Biological target: GSK 3α (Homo sapiens (Human), UniProt P49840)
Experiment: GSK 3α enzyme inhibition (FRET, Z-LYTE; Method 2)
Assay type: biochemical
Conditions: read-out: IC50 Values for Enzyme Inhibition GSK3α
Procedure: The enzyme inhibitory activities of compounds disclosed herein are determined by FRET using synthetic peptides labelled with both donor and acceptor fluorophores (Z-LYTE, Invitrogen Ltd., Paisley, UK).
The inhibitory activities of compounds of the invention against the GSK 3α enzyme isoform (Invitrogen), are evaluated by determining the level of activation I phosphorylation of the target peptide. The GSK3-α protein (500 ng/mL, 2.5 μL) is mixed with the test compound (2.5 μL at either 4 μg/mL, 0.4 μg/mL, 0.04 μg/mL, or 0.004 μg/mL) for 2 hr at RT. The FRET peptide (8 μM, 2.5 μL), which is a phosphorylation target for GSK3α, and ATP (40 μM, 2.5 μL) are then added to the enzyme\compound mixture and the resulting mixture incubated for 1 hr. Development reagent (protease, 5 μL) is added for 1 hr prior to detection in a fluorescence microplate reader (Varioskan® Flash, ThermoFisher Scientific).
In all cases, the site-specific protease cleaves non-phosphorylated peptide only and eliminates the FRET signal. Phosphorylation levels of each reaction are calculated using the ratio of coumarin emission (donor) over fluorescein emission (acceptor), for which high ratios indicate high phosphorylation and low ratios indicate low phosphorylation levels.
This method follows the same steps as Method 1 above, but utilises a shorter period of mixing of the test compound (105 minutes instead of 2 hours) with the GSK3-α protein. In addition, the concentrations of test compound employed are either 10 μg/mL, 1 μg/mL, 0.1 μg/mL, or 0.01 μg/mL

Sequence of GSK 3α (P49840 whole entry): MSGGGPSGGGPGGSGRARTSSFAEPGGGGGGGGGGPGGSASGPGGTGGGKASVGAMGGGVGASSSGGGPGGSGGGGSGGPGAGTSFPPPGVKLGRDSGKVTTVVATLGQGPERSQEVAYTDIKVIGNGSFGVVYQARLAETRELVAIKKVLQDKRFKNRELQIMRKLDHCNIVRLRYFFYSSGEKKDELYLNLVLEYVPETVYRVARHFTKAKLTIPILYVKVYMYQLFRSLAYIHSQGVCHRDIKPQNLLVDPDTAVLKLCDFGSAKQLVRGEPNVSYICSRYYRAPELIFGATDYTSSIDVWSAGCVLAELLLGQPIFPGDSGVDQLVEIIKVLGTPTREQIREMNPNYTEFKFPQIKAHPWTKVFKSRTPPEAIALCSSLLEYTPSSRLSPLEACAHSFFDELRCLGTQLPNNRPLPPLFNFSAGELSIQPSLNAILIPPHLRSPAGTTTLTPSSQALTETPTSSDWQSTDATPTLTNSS

Row | Structure (SMILES) | IC50 [µM]
1 | COCCOCCOCCOc1cc(Nc2nccc(Oc3ccc(NC(=O)Nc4cc(C(C)(C)C)cc(C(=O)NC(C)C)c4OC)c4ccccc34)n2)cc(OC)c1 [Example 42, 5-(tert-Butyl)-N-isopropyl-2-methoxy-3-(3-(4-((2-((3-methoxy-5-(2-(2-(2-methoxyethoxy)-ethoxy)ethoxy)phenyl)amino)pyrimidin-4-yl)oxy)naphthalen-1-yl)ureido)benzamide] | 0.705
2 | COCCNC(=O)c1cc(C(C)(C)C)cc(NC(=O)Nc2ccc(Oc3ccnc(Nc4cc(OC)cc(OCCOCCOCCOC)c4)n3)c3ccccc23)c1OC [Example 43, 5-(tert-Butyl)-2-methoxy-3-(3-(4-((2-((3-methoxy-5-(2-(2-(2-methoxyethoxy)ethoxy)-ethoxy)phenyl)amino)pyrimidin-4-yl)oxy)naphthalen-1-yl)ureido)-N-(2-methoxyethyl)-benzamide] | 0.52
3 | COCCOCCOCCOc1cc(Nc2nccc(Oc3ccc(NC(=O)Nc4cc(C(C)(C)C)cc(C(=O)NCC(=O)O)c4OC)c4ccccc34)n2)cc(OC)c1 [Example 44, 2-(5-(tert-Butyl)-2-methoxy-3-(3-(4-((2-((3-methoxy-5-(2-(2-(2-methoxyethoxy)ethoxy)-ethoxy)phenyl)amino)pyrimidin-4-yl)oxy)naphthalen-1-yl)ureido)benzamido)acetic acid] | 0.08
4 | COc1cc(Nc2nccc(Oc3ccc(NC(=O)Nc4cc(C(C)(C)C)cc(NS(C)(=O)=O)c4OC)c4ccccc34)n2)cc(C(=O)C2CC2)c1 [Example 50, N-(5-(tert-Butyl)-3-(3-(4-((2-((3-(cyclopropanecarbonyl)-5-methoxyphenyl)amino)-pyrimidin-4-yl)oxy)naphthalen-1-yl)ureido)-2-methoxyphenyl)methanesulfonamide] | 13.8
5 | C#Cc1cc(Nc2nccc(Oc3ccc(NC(=O)Nc4cc(C(C)(C)C)cc(C(=O)NC)c4OC)c4ccccc34)n2)cc(C(=O)N[C@@H](C)CN2CCOCC2)c1 [Example 60, (S)-5-(tert-Butyl)-3-(3-(4-((2-((3-ethynyl-5-((1-morpholinopropan-2-yl)carbamoyl)phenyl)amino)pyrimidin-4-yl)oxy)naphthalen-1-yl)ureido)-2-methoxy-N-methylbenzamide] | 0.539
6 | C#Cc1cc(Nc2nccc(Oc3ccc(NC(=O)Nc4cc(C(C)(C)C)cc(C(=O)NC)c4OC)c4ccccc34)n2)cc(C(=O)N[C@H](C)CN2CCOCC2)c1 [Example 61, (R)-5-(tert-Butyl)-3-(3-(4-((2-((3-ethynyl-5-((1-morpholinopropan-2-yl)carbamoyl)phenyl)amino)pyrimidin-4-yl)oxy)naphthalen-1-yl)ureido)-2-methoxy-N-methylbenzamide] | 0.372
7 | COCCOCCOCCOc1cc(Nc2nccc(Oc3ccc(NC(=O)Nc4cc(C(C)(C)C)cc5[nH]c(=O)oc45)c4ccccc34)n2)cc(OC)c1 [Example 63, 1-(5-(tert-Butyl)-2-oxo-2,3-dihydrobenzo[d]oxazol-7-yl)-3-(4-((2-((3-methoxy-5-(2-(2-(2-methoxyethoxy)ethoxy)ethoxy)phenyl)amino)pyrimidin-4-yl)oxy)naphthalen-1-yl)urea] | 0.829
8 | COCCOCCOCCOc1cc(Nc2nccc(Oc3ccc(NC(=O)Nc4cc(C(C)(C)C)cc5nc(C)oc45)c4ccccc34)n2)cc(OC)c1 [Example 64, 1-(5-(tert-Butyl)-2-methylbenzo[d]oxazol-7-yl)-3-(4-((2-((3-methoxy-5-(2-(2-(2-methoxy-ethoxy)ethoxy)ethoxy)phenyl)amino)pyrimidin-4-yl)oxy)naphthalen-1-yl)urea] | 1.46
9 | COCCOCCOCCOc1cc(Nc2nccc(Oc3ccc(NC(=O)Nc4cc(C(C)(C)C)cc(NS(=O)(=O)C(F)(F)F)c4OC)c4ccccc34)n2)cc(OC)c1 [Example 71] | 2.62
10 | COCCOCCOCCOc1cc(Nc2nccc(Oc3ccc(NC(=O)Nc4cc(C(C)(C)C)cc(NS(=O)(=O)C5CCCCC5)c4OC)c4ccccc34)n2)cc(OC)c1 [Example 72, N-(5-(tert-Butyl)-2-methoxy-3-(3-(4-((2-((3-methoxy-5-(2-(2-(2-methoxyethoxy)ethoxy)-ethoxy)phenyl)amino)pyrimidin-4-yl)oxy)naphthalen-1-yl)ureido)phenyl)cyclohexane-sulfonamide] | 11.3
11 | COCCOCCOCCOc1cc(Nc2nccc(Oc3ccc(NC(=O)Nc4cc(C(C)(C)C)cc(NS(=O)(=O)N5CCCCC5)c4OC)c4ccccc34)n2)cc(OC)c1 [Example 73, N-(5-(tert-Butyl)-2-methoxy-3-(3-(4-((2-((3-methoxy-5-(2-(2-(2-methoxyethoxy)ethoxy)-ethoxy)phenyl)amino)pyrimidin-4-yl)oxy)naphthalen-1-yl)ureido)phenyl)piperidine-1-sulfonamide] | 11.3
12 | COCCOCCOCCOc1cc(Nc2nccc(Oc3ccc(NC(=O)Nc4cc(C(C)(C)C)cc(NS(=O)(=O)N(C)C)c4OC)c4ccccc34)n2)cc(OC)c1 [Example 74, N-(5-(tert-Butyl)-2-methoxy-3-(3-(4-((2-((3-methoxy-5-(2-(2-(2-methoxyethoxy)ethoxy)-ethoxy)phenyl)amino)pyrimidin-4-yl)oxy)naphthalen-1-yl)ureido)phenyl)dimethylamino-sulfonamide] | 9.68
13 | COc1c(NC(=O)Nc2ccc(Oc3ccnc(Nc4ccccc4)n3)c3ccccc23)cc(C(C)(C)C)cc1C(=O)NC1COC1 [Example 78, 5-(tert-Butyl)-2-methoxy-N-(oxetan-3-yl)-3-(3-(4-((2-(phenylamino)pyrimidin-4-yl)oxy)-naphthalen-1-yl)ureido)benzamide] | 0.896
14 | COc1c(NC(=O)Nc2ccc(Oc3ccnc(Nc4ccccc4)c3)c(F)c2F)cc(C(C)(C)C)cc1C(=O)NC1COC1 [Example 82, 5-(tert-Butyl)-3-(3-(2,3-difluoro-4-((2-(phenylamino)pyridin-4-yl)oxy)phenyl)ureido)-2-methoxy-N-(oxetan-3-yl)benzamide] | 0.182
15 | C#Cc1cc(Nc2cc(Oc3ccc(NC(=O)Nc4cc(C(C)(C)C)cc(NS(C)(=O)=O)c4OC)c4ccccc34)ccn2)cc(C(=O)NCCN2CCN(C)CC2)c1 [Example 85(c), 3-[[4-[[4-[[5-tert-Butyl-3-(methanesulfonamido)-2-methoxyphenyl]-carbamoylamino]-1-nahthyl]oxy]-2-pyridyl]amino]-5-ethynyl-N-[2-(4-methylpiperazin-1-yl)ethyl]benzamide] | 3.56
16 | COc1cc(Nc2nccc(Oc3ccc(NC(=O)Nc4cc(C(C)(C)C)cc(NS(C)(=O)=O)c4OC)c4ccccc34)n2)cc(C(=O)NCCN2CCN(C)CC2)c1 [Example 85(e), 3-[[4-[[4-[[5-tert-Butyl-3-(methanesulfonamido)-2-methoxyphenyl]-carbamoylamino]-1-naphthyl]oxy]pyrimidin-2-yl]amino]-5-methoxy-N-[2-(4-methyypiperazin-1-yl)ethyl]benzamide] | 0.3
17 | COc1cc(Nc2cc(Oc3ccc(NC(=O)Nc4cc(C(C)(C)C)cc(NS(C)(=O)=O)c4OC)c4ccccc34)ccn2)cc(C(=O)NCCN2CCCN(C)CC2)c1 [Example 85(p), 3-[[4-[[4-[[5-tert-Butyl-3-(methanesulfonamido)-2-methoxyphenyl]-carbamoylamino]-1-naphthyl]oxy]-2-pyridyl]amino]-5-methoxy-N-[2-(4-methyl-1,4-diazean-1-yl)ethyl]benzamide] | 1.16
18 | COCCOCCOCC[S+]([O-])c1cc(Nc2cc(Oc3ccc(NC(=O)Nc4cc(C(C)(C)C)cc(NS(C)(=O)=O)c4OC)c4ccccc34)ccn2)cc(OC)c1 (stereo not drawn) [Example 85(x), 1-[5-tert-Butyl-3-(methanesulfonamido)-2-methoxyphenyl]-3-[4-[2-[3-methoxy-5-[2-[2-(2-methoxyethoxy)ethoxy]ethylsufinyl]anilino]pyridin-4-yl]oxy-1-naphthyl]urea] | 0.878
